Measurements taken from US20090062124A1, “Ethephon-induced enhancement of seedling development” (priority 2007, published 2009).
Where “and” joins values, the source holds several entries; their conditions need not be identical. Equal entries are not always repeated.

Columns and labels:
Assay type in all cases: in vivo
Cotton plants = Cotton plants sprayed with ethephon at the cotyledon stage in greenhouse conditions
Protocol: (§1) Cotton plants were treated with ethephon in greenhouse conditions to evaluate the effects of ethephon application. All plants in the treatment groups received a single application by spraying of various concentrations of aqueous solutions of ethephon (0, 1.0, 3.8, 7.6, and 15.2 mM ethephon) to plants at the cotyledon stage. Lateral root production, leaf numbers and leaf size, and number of cotton squares were determined 7 to 80 days after spraying. To evaluate the effect on as a seed treatment, cotton seeds were soaked in aqueous ethephon solutions (10, 20, 30, and 50 mM) for 10 seconds prior to planting.

cotton seeds = experiment: Cotton seeds soaked in aqueous ethephon solutions prior to planting; settings: seeds soaked 10 seconds; 10, 20, 30 and 50 mM tested
Protocol: as §1

[1] = test system: dryland field grown cotton; experiment: Dryland field grown cotton sprayed with ethephon, seed cotton yield; settings: 3.8 mM single spray at cotyledon, two leaf or four leaf stage; vs non-treated controls; FIG. 1
Protocol: The effects of ethephon treatment on dryland field grown cotton were measured. All plants in the treatment groups received a single application by spraying of 3.8 mM ethephon at either the cotyledon stage, two leaf stage, and four leaf stage. Cotton yields, measured as seed cotton weight, were measured at the end of the season following harvest.

[2] = test system: Soybean seedlings (46G02 RR/STS, Kelly Green Seeds); experiment: Soybean seedlings sprayed with ethephon in greenhouse conditions
Protocol: Soybean seedlings (46G02 RR/STS, Kelly Green Seeds) at the cotyledon—second leaf stage were treated with ethephon in greenhouse conditions to evaluate the effects of ethephon application. All plants in the treatment groups received a single application by spraying of various concentrations of aqueous solutions of ethephon (0, 1.0, 3.8, 7.6, and 15.2 mM ethephon) to plants at the cotyledon stage. Root development, measured as tap root and lateral root lengths, and seedling growth were determined 7 days after spraying.

wheat seedlings = experiment: Wheat seedlings sprayed with ethephon in greenhouse conditions; settings: between 1 mM and 7.6 mM ethephon, seven days after spraying, vs untreated controls
Protocol: (§2) The effects of ethephon treatment on the root development of corn and wheat was evaluated. Corn and wheat seedlings at the two to three leaf stage were treated with ethephon in greenhouse conditions. All plants in the treatment groups received a single application by spraying of various concentrations of aqueous solutions of ethephon (0, 1.0, 3.8, 7.6, 11.4, 15.2 and 30.4 mM ethephon for wheat, and 0, 3.8, 5.7, 7.6, 11.4, 15.2, 30.4, 45.6, and […] ethephon for corn) to plants at the cotyledon stage. Root development, measured as tap root and lateral root lengths for corn and tap root length for wheat, and shoot length and root hair production were also determined for wheat, seven days after spraying. To evaluate the effect on as a seed treatment, wheat and corn seeds were soaked in aqueous ethephon solutions (90 mM) for 10 seconds prior to planting.

Corn seedlings = Corn seedlings sprayed with ethephon in greenhouse conditions
Protocol: as §2

[3] = spray, 0, 1.0, 3.8, 7.6 and 15.2 mM tested
[4] = sprayed cotton, 7 to 80 days after spraying
[5] = 7 days after spraying, vs untreated controls
[6] = between 3.8 and 11.4 mM ethephon, seven days after spraying, vs untreated controls

O=P(O)(O)CCCl [Ethephon, (2-chloroethyl)phosphonic acid]
increase in fruiting sites (cotton squares) (Cotton plants; 3.8 mM ethephon vs control): 30% | Average # of squares (Cotton plants; 3.8 mM ethephon, single spray at cotyledon stage, greenhouse, average of 3 reps (control 42)): 55 | Number of squares (Cotton plants; 3.8 mM ethephon, single spray at cotyledon stage, greenhouse, per rep): 58 and 54 and 53 | ethephon concentration giving optimum results (Cotton plants; [3]): 3.8 mM | fruiting (number of cotton squares) (Cotton plants; [4]): increased fruiting | lateral root development (Cotton plants; [4]): statistically significant increases | leaf size (Cotton plants; [4]): without a decrease in leaf size | rate of leaf production (measured as numbers of leaves) (Cotton plants; [4]): statistically significant increases | optimum seed soak concentration (cotton seeds): 30 mM | cotton yields (seed cotton weight) [1]: significantly increased yields | seedling growth [2, 5]: statistically significant increases | taproot and lateral root development [2, 5]: statistically significant increases | ethephon concentration giving optimum results [2, 3]: 3.8 mM | shoot length (wheat seedlings): statistically significant increases | taproot length (wheat seedlings): statistically significant increases | lateral root length (Corn seedlings; [6]): statistically significant increases | taproot length (Corn seedlings; [6]): statistically significant increases | ethephon concentration giving optimum results (Corn seedlings; spray, FIG. 4): 7.6 mM
